Patent US20250129370A1, “METHOD FOR REDUCING HEPATIC TRIGLYCERIDES” (ADAERATA, LIMITED PARTNERSHIP, priority 2022, published 2025)

What was measured:
[1] = system: mutated form of PCSK7 3′-UTR; test: Luciferase reporter assay, miRNA target site-deleted PCSK7 3′-UTR, HEK293T cells; format: cell-based, human
Excerpt: The interactions between the miRNAs and their probable targets on PCSK7 were explored by cloning the potential target regions in psiCHECK-2™ (Promega, USA), a luciferase reporter vector. In psiCHECK-2™, hRluc, the Renilla luciferase gene, is located upstream of the target regions of interest cloned into the psiCHECK-2™ vector downstream of the Renilla gene. The region corresponding to the 3′-UTR of PCSK7 (926-nt sequences in length) that constituted the predicted miRNA response elements was PCR-amplified and cloned downstream of the Renilla luciferase gene in the psiCHECK-2™ vector (Promega, USA). For the confirmation of whether miRNA response elements (miRNA target sites) on the 3′-UTR of PCSK7 were active and had direct interactions with the miRNAs, different mutants (plasmids) were constructed via splicing by over-hang-extension (SOEing) PCR. For miR-125a-5p and miR-143-3p, each of which has two miRNA response elements on PCSK7 3′-UTR, three different mutant constructs were built. Two constructs were made by deleting a putative miRNA target site, and the third one was made by omitting both putative miRNA target sites in the 3′-UTR sequence of PCSK7. In the miR-409-3p mutant construct, a putative miRNA target site was deleted from the 3′-UTR sequence.
The HEK293T cells were co-transfected through the application of the wild-type psiCHECK-2, the wild-type PCSK7 3′-UTR, the mutant PCSK7 3′-UTR, and the miR-overexpressing vectors so that the direct interactions of the nominated miRNAs with PCSK7 3′-UTR could be investigated. In brief, 150 ng of the wild-type or mutated 3′-UTR constructs and 300 ng of the miRNA-expressing vectors were co-transfected in HEK293T-cultured 48-well plates using FuGENE™ (Invitrogen, USA). Additionally, the psiCHECK-2 and pEGFP-C1 mock vectors were transfected and utilized as controls for luciferase assay and transfection, respectively. Transfection efficiency was monitored by fluorescent microscopy (Nikon TE2000S, Japan) 36 hours following the procedure.
The PsiCHECK-2 reporter construct plasmid contained the Renilla luciferase gene upstream of PCSK7 3′-UTR and an independent firefly luciferase gene as an internal control for normalization. Forty-eight hours after HEK293T co-transfection, the luciferase reporter assay was carried out employing the Dual-Luciferase Reporter Assay System (Promega, USA) with a luminometer (Titertek-Berthold, Germany) in accordance with the manufacturer's protocol. Each sample was performed in triplicate, and the experiment was repeated at least three biological times. In short, a lysis buffer was added to each well after the removal of the media of the cell. Then, LARII Reagent was added, and after 20 minutes, the firefly luciferase activity was measured as a control. Afterward, Renilla activity was determined using Stop & Glo Reagent. The relative luciferase activity was calculated using the following formula: ΔFold Activity of Luciferase (Renilla/Firefly)=Average Renilla/Firefly from Samples A/B.
A luciferase reporter assay further confirmed that miR-125a-5p, miR-143-3p, and miR-409-3p directly targeted the 3′-UTR of the PCSK7 transcript since the negative regulatory effect was lost upon the deletion of the miRNA target sites (miR-125a-5p, miR-143-3p, and miR-409-3p) on the 3′-UTR of the PCSK7 reporter plasmid (FIGS. 28A-B). In this regard, three different mutated miR plasmids were constructed for both miR-125a-5p and miR-143-3p. Single-target sites of each miRNA were omitted individually in two separate plasmids, and the two putative binding sites of the miRNAs were deleted in the other plasmid.

[2] = molecular target: T1, secretory short N-terminal fragment of apoB (s-apoB; aa 1-965), P04114
T1 chain: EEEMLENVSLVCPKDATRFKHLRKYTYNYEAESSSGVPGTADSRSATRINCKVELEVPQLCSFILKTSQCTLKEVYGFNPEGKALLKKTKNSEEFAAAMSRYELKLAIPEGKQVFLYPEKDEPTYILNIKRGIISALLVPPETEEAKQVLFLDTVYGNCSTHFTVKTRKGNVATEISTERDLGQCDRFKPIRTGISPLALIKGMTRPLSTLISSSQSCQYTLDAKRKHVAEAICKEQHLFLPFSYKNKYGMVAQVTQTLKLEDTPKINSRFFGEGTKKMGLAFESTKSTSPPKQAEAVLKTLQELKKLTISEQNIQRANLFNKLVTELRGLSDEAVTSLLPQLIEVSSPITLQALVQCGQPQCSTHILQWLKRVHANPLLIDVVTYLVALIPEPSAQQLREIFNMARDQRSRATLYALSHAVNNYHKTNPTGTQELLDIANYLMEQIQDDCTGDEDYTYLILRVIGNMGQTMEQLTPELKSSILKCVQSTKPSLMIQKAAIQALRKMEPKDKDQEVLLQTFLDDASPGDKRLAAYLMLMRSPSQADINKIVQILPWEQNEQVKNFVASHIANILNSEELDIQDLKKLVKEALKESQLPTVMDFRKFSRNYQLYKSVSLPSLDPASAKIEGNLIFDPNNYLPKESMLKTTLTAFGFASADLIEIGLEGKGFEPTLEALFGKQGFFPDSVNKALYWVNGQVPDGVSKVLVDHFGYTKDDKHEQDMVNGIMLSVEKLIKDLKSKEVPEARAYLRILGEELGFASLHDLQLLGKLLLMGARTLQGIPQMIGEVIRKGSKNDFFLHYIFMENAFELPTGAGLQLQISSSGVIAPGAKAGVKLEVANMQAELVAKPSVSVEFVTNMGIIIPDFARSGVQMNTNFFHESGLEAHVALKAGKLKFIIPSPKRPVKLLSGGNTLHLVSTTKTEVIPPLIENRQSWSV

miR-143-3p: miRNA with two target sites in the PCSK7 3′-UTR, overexpressed from precursor vector (UGAGAUGAAGCACUGUAGCUC; miRNA expressed from a precursor vector, further chemistry not given here)
relative luciferase activity ([1]; Mut-a, deletion of the first target site): considerably diminished | relative luciferase activity ([1]; Mut-a,b, deletion of both miRNA target sites): no significant effect | relative luciferase activity ([1]; Mut-b, deletion of the second target site): considerably diminished

miR-409-3p: miRNA with one target site in the PCSK7 3′-UTR, overexpressed from precursor vector (GAAUGUUGCUCGGUGAACCCCU; miRNA expressed from a precursor vector, further chemistry not given here)
luciferase activity ([1]; only putative target site of miR-409-3p absent): did not lead to a reduction

B1: human PC7 (overexpressed in IHH cells) (protein)
chain: SVHFNDPKYPQQWHLNNRRSPGRDINVTGVWERNVTGRGVTVVVVDDGVEHTIQDIAPNYSPEGSYDLNSNDPDPMPHPDVENGNHHGTRCAGEIAAVPNNSFCAVGVAYGSRIAGIRVLDGPLTDSMEAVAFNKHYQINDIYSCSWGPDDDGKTVDGPHQLGKAALQHGVIAGRQGFGSIFVVASGNGGQHNDNCNYDGYANSIYTVTIGAVDEEGRMPFYAEECASMLAVTFSGGDKMLRSIVTTDWDLQKGTGCTEGHTGTSAAAPLAAGMIALMLQVRPCLTWRDVQHIIVFTATRYEDRRAEWVTNEAGFSHSHQHGFGLLNAWRLVNAAKIWTSVPYLASYVSPVLKENKAIPQSPRSLEVLWNVSRMDLEMSGLKTLEHVAVTVSITHPRRGSLELKLFCPSGMMSLIGAPRSMDSDPNGFNDWTFSTVRCWGERARGTYRLVIRDVGDESFQVGILRQWQLTLYGSVWSAVDIRDRQRLLESAMSGKYLHDDFALPCPPGLKIPEEDGYTITPNTLKTLVLVGCFTVFWTVYYMLEVYLSQRNVASNQVCRSGPCHWPHRSRKAKEEGTELESVPLCSSKDPDEVETESRGPPTTSDLLAPDLLEQGDWSLSQNKSALDCPHQHLDVPHGKEEQIC
secretion of s-apoB (apoB21) into the medium, Western blot [2]: overexpression of PC7 enhanced the secretion of s-apoB (apoB21)

B2: rat PC7 soluble-KDEL variant (retained in the ER) (protein)
chain: SIHFNDPKYPQQWHLNNRRSPGRDINVTGVWERNVTGRGVTVVVVDDGVEHTVQDIAPNYSPEGSYDLNSNDPDPMPHPDEENGNHHGTRCAGEIAAVPNNSFCAVGVAYGSRIAGIRVLDGPLTDSMEAVAFNKHYQINDIYSCSWGPDDDGKTVDGPHQLGKAALQHGVMAGRQGFGSIFVVASGNGGQHNDNCNYDGYANSIYTVTIGAVDEEGRMPFYAEECASMLAVTFSGGDKMLRSIVTTDWDLQKGTGCTEGHTGTSAAAPLAAGMIALMLQVRPCLTWRDVQHIIVFTATQYEDHRADWLTNEAGFSHSHQHGFGLLNAWRLVNAAKIWTSVPYLASYVSPMLKENKAVPRSPHSLEVLWNVSRTDLEMSGLKTLEHVAVTVSITHPRRGSLELKLFCPSGMMSLIGAPRSMDSDPNGFNDWTFSTVRCWGERARGVYRLVIRDVGDEPLQVGILQQWQLTLYGSTWSPVDIKDRQSLLESAMSGKYLHDDFTLPCPPGLKIPEEDGYSITPNTLKTKDEL
secretion of s-apoB (apo21) compared to rPC7, Western blot [2]: rPC7-KDEL significantly reduced (~30%) s-apoB (apo21) secretion compared to rPC7

B3: rat PC7 (protein)
chain: SIHFNDPKYPQQWHLNNRRSPGRDINVTGVWERNVTGRGVTVVVVDDGVEHTVQDIAPNYSPEGSYDLNSNDPDPMPHPDEENGNHHGTRCAGEIAAVPNNSFCAVGVAYGSRIAGIRVLDGPLTDSMEAVAFNKHYQINDIYSCSWGPDDDGKTVDGPHQLGKAALQHGVMAGRQGFGSIFVVASGNGGQHNDNCNYDGYANSIYTVTIGAVDEEGRMPFYAEECASMLAVTFSGGDKMLRSIVTTDWDLQKGTGCTEGHTGTSAAAPLAAGMIALMLQVRPCLTWRDVQHIIVFTATQYEDHRADWLTNEAGFSHSHQHGFGLLNAWRLVNAAKIWTSVPYLASYVSPMLKENKAVPRSPHSLEVLWNVSRTDLEMSGLKTLEHVAVTVSITHPRRGSLELKLFCPSGMMSLIGAPRSMDSDPNGFNDWTFSTVRCWGERARGVYRLVIRDVGDEPLQVGILQQWQLTLYGSTWSPVDIKDRQSLLESAMSGKYLHDDFTLPCPPGLKIPEEDGYSITPNTLKTLVLVGCFSVFWTIYYMLEVCLSQRSKASTHGCRRGCCPWPPQSQNSKEVGTALESMPLCSSKDLDGVDSEHGDCTTASSLLAPELLGEADWSLSQNSKSDLDCPPHQPPDLKDGQIC
secretion of s-apoB (apo21), Western blot [2]: rat PC7 (rPC7) also enhanced by ~2-fold the secretion of s-apoB (apo21)
